Test results from patent US6933296B2, “Compounds effective as β2-adrenoreceptor agonists as well as PDE4-inhibitors” (Altana Pharma B.V., priority 2000, dated 2005).

Assays:
[1] = tested on: PDE4; experiment: Inhibition of PDE4 activity (cytosol from human neutrophils, [3H]cAMP hydrolysis); assay type: biochemical; settings: 0.5 μM cAMP, Motapizone 1 μM, DMSO 0.5% for (some of) examples 1-19, 1% from example 20
Procedure: Method for Measuring Inhibition of PDE4 Activity
PDE4 activity was determined as described by Thompson et al. (Adv Cycl Nucl Res 10: 69-92, 1979) with some modifications (Bauer and Schwabe, Naunyn-Schmiedeberg's Arch Pharmacol 311: 193-198, 1980). At a final assay volume of 200 μl (96well microtiter plates) the assay mixture contained 20 mM Tris-HCl (pH 7.4), 5 mM MgCl2, 0.5 μM cAMP, [^3H]cAMP (about 30,000 cpm/assay), the test compound and an aliquot of cytosol from human neutrophils which mainly contains PDE4 activity as described by Schudt et al. (Naunyn-Schmiedeberg's Arch Pharmacol 344: 682-690, 1991); the PDE3-specific inhibitor Motapizone (1 μM) was included to suppress PDE3 activity originating from contaminating platelets.
To minimize problems with the solubility of the compounds, starting from example 20 serial dilutions of the compounds were prepared directly in DMSO and further diluted 1:100 (v/v) in the assays to obtain now the final concentrations of the inhibitors at a DMSO concentration of 1% (v/v) which by itself only slightly affected PDE4 activity.
After preincubation for 5 min at 37° C., the reaction was started by the addition of substrate (cAMP) and the assays were incubated for further 15 min at 37° C. 50 μl of 0.2 N HCl was added to stop the reaction and the assays were left on ice for about 10 min. Following incubation with 25 μg 5′-nucleotidase (Crotalus atrox snake venom) for 10 min at 37° C., the assays were loaded on QAE Sephadex A-25 (1 ml bed volume). The columns were eluted with 2 ml of 30 mM ammonium formiate (pH 6.0) and the eluate was counted for radioactivity. Results were corrected for blank values (measured in the presence of denatured protein) which were below 5% of total radioactivity. […] The IC50-values for the compounds according to the invention for the inhibition of the PDE4 activity were determined from the concentration-inhibition curves by nonlinear-regression.

[2] = tested on: human eosinophils; experiment: Inhibition of C5a-stimulated chemiluminescence in human eosinophils; assay type: cell-based; settings: 100 nM C5a, 100 nM salbutamol included as additional cAMP trigger; for IC30: Eosinophil, read-out: Inhibition of C5a-stimulated chemiluminescence [-logIC30 (mol/l)] (converted)
Excerpt: c) Inhibition of C5a-stimulated Chemiluminescence in Human Eosinophils
Eosinophils were purified essentially as described in detail elsewhere (Hatzelmann A, Tenor H and Schudt C, Differential effects of non-selective and selective phosphodiesterase inhibitors on human eosinophil functions. Brit J Pharmacol 114: 821-831, 1995). Briefly, total granulocytes were first purified from blood (anticoagulated with 0.3% w/v sodium citrate) by dextran sedimentation, centrifugation on Ficoll Paque and hypotonic lysis of remaining red blood cells. For the further purification of the eosinophil fraction the magnetic cell separation (MACS) system from Miltenyi Biotec (Bergisch-Gladbach, Germany) was applied. Eosinophils were separated from neutrophils by negative selection using anti-CD16 microbeads in a two-step protocol using D- and BS-(formerly called B2-) separation columns. By this method human eosinophils with a purity of >99% and a viability of >97% were obtained.
The chemiluminescence (CL) assay was essentially performed as described (Hatzelmann et al., 1995). Briefly, measurements were performed in a “CL-buffer” (140 mM NaCl, 5 mM KCl, 1 mM MgCl2, 10 mM HEPES, pH 7.4) containing 1 mM CaCl2, 1 mg/ml glucose, 0.05% (w/v) BSA, 10 μM luminol and 4 μM microperoxidase (all values correspond to final concentrations in the assays) in a total volume of 0.5 ml at a cell concentration of 10^6 cells/ml. Aliquots (0.4 ml) of the cell suspension (containing luminol and microperoxidase) were preincubated for 5 min at 37° C. in the absence or presence of inhibitors (0.05 ml). Stock solutions of the inhibitors (10 mM) were prepared in DMSO and diluted 1:100 (v/v) in CL-buffer; subsequent dilutions were made in 1% DMSO/CL-buffer to achieve the final drug concentrations in the assays at a DMSO concentration of 0.1% (v/v) which by itself only weakly affected the CL response. […] After preincubation, the assays were transferred into a “Multi-biolumat LB 9505C” from Berthold (Wildbad, Germany) and stimulated by the addition of 0.05 ml C5a (dissolved in CL-buffer; 100 nM final concentration). CL was continuously recorded for 1 min (C5a) and the AUC (area under the curve) calculated. Inhibition of CL by the compounds under these conditions is given as −log IC30 (mol/l).

[3] = molecular target: T1, β2-adrenoceptor (Cavia porcellus, UniProt Q8K4Z4); experiment: β2-Adrenoceptor agonistic activity in isolated guinea-pig trachea (relaxation); assay type: cell-based; settings: half-maximal relaxation of isolated guinea-pig trachea pre-treated with 3×10^−7 M RP 73401; for EC50: read-out: β2-Adrenoceptor agonistic affinity [-logEC50 (mol/l)] (converted)
T1 construct: Male guinea-pigs (350-450 g) were killed by a sharp blow on the head and exsanguination, after that the trachea was removed; from tissue; host or cells: isolated guinea-pig trachea (ring chains in organ bath)
T1 sequence (Q8K4Z4 whole entry): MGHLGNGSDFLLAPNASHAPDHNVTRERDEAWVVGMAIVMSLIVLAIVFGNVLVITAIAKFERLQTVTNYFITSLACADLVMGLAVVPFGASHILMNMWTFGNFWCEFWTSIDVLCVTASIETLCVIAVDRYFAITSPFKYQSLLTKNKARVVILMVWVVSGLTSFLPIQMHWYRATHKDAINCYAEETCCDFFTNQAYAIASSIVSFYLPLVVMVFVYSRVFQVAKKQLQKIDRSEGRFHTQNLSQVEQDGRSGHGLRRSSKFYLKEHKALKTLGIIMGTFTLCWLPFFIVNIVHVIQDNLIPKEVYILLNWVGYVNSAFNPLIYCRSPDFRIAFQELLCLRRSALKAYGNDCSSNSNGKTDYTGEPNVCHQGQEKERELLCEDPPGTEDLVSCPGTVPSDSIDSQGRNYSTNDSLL
Excerpt: b) β2-Adrenoceptor Agonistic Activity in Isolated Guinea-pig Trachea
Male guinea-pigs (350-450 g) were killed by a sharp blow on the head and exsanguination, after that the trachea was removed. After clearing off adhering tissue the trachea was cut into single rings which were tied together forming up to six 4- to 5-ring chains which were suspended in 10-ml organ baths containing Krebs buffer of the following composition (mM): NaCl 118, KCl 5.2, CaCl2 1.9, MgSO4 0.56, NaH2PO4 0.8, NaHCO3 25.0, and glucose 11.1, maintained at 37° C. and continuously aerated with a mixture of 95% O2 and 5% CO2. The end of the chain was tied at the bottom of the tissue bath and connected to a force-displacement transducer (Type K-30, Hugo Sachs Elektronik, Germany) for the recording of isometric tension changes and then placed under 1.5 to 2 g of tension. After a 60 min equilibration period, during which time the preparations were repeatedly washed and the spontaneous contraction plateaud, each tracheal preparation was pre-treated with 3×10^−7 M of RP 73401 for total inhibition of PDE4, which caused relaxation of the tissue between 30 and 40% of maximum (Harris et al., 1989, JPET 251: 199-206). After stabilization of the relaxant response to RP 73401, the test drugs were administered in a cumulative manner (factor 3), each concentration remaining in contact with the trachea until the […] response reached a plateau, before addition of the next higher concentration. At the end of the test drug administration, which caused maximal relaxation the tissue (verified in control experiments for each test drug by additional administration of 10^−6 M (−)-isoprenaline), a high concentration of the β-adrenoceptor antagonist, dl-sotalol (3−6×10^−4 M), was additionally given to assess whether the relaxant response of the trachea to test compound was due to β2-adrenoceptor stimulation. dl-Sotalol nearly completely reversed the relaxation amplitude to the test compounds and was taken as evidence for their β2-adrenoceptor agonistic property. The relaxant response to test compound was expressed as percent determined between the relaxant amplitude after that reached by RP 73401 (0%) and the maximal relaxation obtained prior to dl-sotalol administration (100%). EC50 values for a half-maximal relaxation of the tissue by test compound were graphically interpolated from 12 to 16 individual concentration-response curve. The −log EC50 values (mol/l) thus obtained were taken as a measure for β2-adrenoceptor agonistic activity of the test compounds.

Compound	Inhibition of PDE4 activity [-logIC50] [1]	IC30 [2] [µM]	EC50 [3] [nM]	melting point [°C]	Inhibition of C5a-stimulated chemiluminescence [-logIC30 (mol/l)] [2] [mol/l]	β2-Adrenoceptor agonistic affinity [-logEC50 (mol/l)] [3]
COc1ccc(C2=NN(CCCCNCC(O)c3cc(Cl)c(N)c(Cl)c3)C(=O)[C@H]3CCCC[C@@H]23)cc1OC.O=C(O)/C=C/C(=O)O (relative stereo) [Compound 1, (cis)-2-(4-[{2-(4-amino-3,5-dichlorophenyl)-2-hydroxyethyl}-amino]-1-butyl)-4-(3,4-dimethoxyphenyl)-4a,5,6,7,8,8a-hexahydro-2H-phthalazin-1-one fumarate]	6.97	3.02	12.9	85 to 88		
COc1ccc(C2=NN(C3CCN(C(=O)CCCNCC(O)c4cc(Cl)c(N)c(C#N)c4)CC3)C(=O)[C@@H]3CC=CC[C@H]23)cc1OC.O=C(O)/C=C/C(=O)O (stereo partly drawn) [Compound 20, 2-Amino-3-chloro-5-[2-(4-{4-[(4aS,8aR)-4-(3,4-dimethoxy-phenyl)-1-oxo-4a,5,8,8a-tetrahydro-1H-phthalazin-2-yl]-piperidin-1-yl}-4-oxo-butylamino)-1-hydroxy-ethyl]-benzonitrile fumarate]	10.2	0.0794	2.29			
(cis)-2-(4-[{2-(4-amino-3-chloro-5-cyanophenyl)-2-hydroxyethyl}amino]-1-butyl)-4-(3,4-dimethoxyphenyl)-4a,5,8,8a-tetrahydro-2H-phthalazin-1-one hemifumarate [Compound 11]					6.22	8.11 -log(mol/l)
(cis)-2-(5-[{2-(4-amino-3-chloro-5-cyanophenyl)-2-hydroxyethyl}amino]-1-pentyl)-4-(3,4-dimethoxyphenyl)-4a,5,8,8a-tetrahydro-2H-phthalazin-1-one hemifumarate [Compound 12]					5.92	8.61 -log(mol/l)
(cis)-2-(6-[{2-(4-amino-3,5-dichlorophenyl)-2-hydroxyethyl}-amino]-1-hexyl)-4-(3,4-dimethoxyphenyl)-4a,5,6,7,8,8a-hexahydro-2H-phthalazin-1-one hemifumarate [Compound 2]					<5	6.86 -log(mol/l)
(cis)-2-(6-[{2-(4-amino-3,5-dichlorophenyl)-2-hydroxyethyl}-amino]-1-hexyl)-4-(3,4-dimethoxyphenyl)-4a,5,8,8a-tetrahydro-2H-phthalazin-1-one hemifumarate [Compound 6]					6.00	7.60 -log(mol/l)
(cis)-2-(6-[{2-(4-amino-3-chloro-5-cyanophenyl)-2-hydroxyethyl}amino]-1-hexyl)-4-(3,4-dimethoxyphenyl)-4a,5,8,8a-tetrahydro-2H-phthalazin-1-one hemifumarate [Compound 13]					6.52	6.91 -log(mol/l)
(cis)-2-(8-[{2-(4-amino-3,5-dichlorophenyl)-2-hydroxyethyl}-amino]-1-octyl)-4-(3,4-dimethoxyphenyl)-4a,5,6,7,8,8a-hexahydro-2H-phthalazin-1-one hemifumarate [Compound 3]					6.52	6.77 -log(mol/l)
(cis)-4-(3,4-dimethoxyphenyl)-2-(6-[{2-(4-hydroxy-3-hydroxymethylphenyl)-2-hydroxyethyl}amino]-1-hexyl)-4a,5,6,7,8,8a-hexahydro-2H-phthalazin-1-one hemifumarate [Compound 14]					5.30	7.24 -log(mol/l)
